This note sets out measurements from patent EP3381907A1, “SYMMETRICAL 2-AMINOPHENYL-BENZAZOLYL-5-ACETATE COMPOUNDS AND THEIR USE AS ANTI-HEPARANASE” (Leadiant Biosciences SA, priority 2017, dated 2018).

For one test, the system named is FGF-1. Briefly: Real-Time quantitative PCR of FGF-1 mRNA in HT1080 cells. Type of test: cell-based, human. The note with it: 24 h. As to the method: To evaluate the effect of heparanase inhibitors on the tumor transcription of genes encoding for proangiogenic factors, such as FGF1/2, VEGF, MMP-9, HSPE-1, the relative mRNA levels were analyzed by quantitative Real-Time Quantitative PCR. To perform the assay, HT1080 (human fibrosarcoma) cells were cultured in complete medium containing 10%FCS (fetal calf serum). Cells were plated in 24-well plates and treated at fixed concentration (i.e., highest non-toxic concentration) of test compounds. After 24 h, cells were detached, collected and total RNA extracted by RNeasy Mini Kit (QIAGEN). Following reverse transcription step, FGF1/2, VEGF, MMP-9, HSPE-1 mRNA levels, were quantified by qPCR using the advanced Universal SYBR Green Supermix (Bio Rad) and ABI PRISM 7900HT Thermal Cycler System (Perkin Elmer), according to the manufacturer's instructions. Appropriate no-RT and non-template controls were included in each 96-well PCR reaction, and dissociation analysis was performed at the end of each run to confirm the specificity of the reaction. Relative levels of RNA were calculated using the ddCt method. Standard curve and sample data were run in duplicate.
In the Table 5 a mean value is reported.

In the next test the target is T1, heparanase (Homo sapiens, UniProt Q9Y251).
T1 sequence (Q9Y251 158-543 limits assumed): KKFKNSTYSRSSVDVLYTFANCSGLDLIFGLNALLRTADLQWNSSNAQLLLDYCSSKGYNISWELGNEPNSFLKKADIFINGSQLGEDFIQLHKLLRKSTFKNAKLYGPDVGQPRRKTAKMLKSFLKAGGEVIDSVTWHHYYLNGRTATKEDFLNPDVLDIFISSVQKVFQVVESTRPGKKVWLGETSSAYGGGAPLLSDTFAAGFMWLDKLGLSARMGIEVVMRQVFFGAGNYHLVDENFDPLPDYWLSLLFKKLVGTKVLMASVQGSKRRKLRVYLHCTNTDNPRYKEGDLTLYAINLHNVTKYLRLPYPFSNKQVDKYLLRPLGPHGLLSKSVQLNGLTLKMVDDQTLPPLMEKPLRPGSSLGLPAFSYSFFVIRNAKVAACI
T1 sequence (Q9Y251 36-109 limits assumed): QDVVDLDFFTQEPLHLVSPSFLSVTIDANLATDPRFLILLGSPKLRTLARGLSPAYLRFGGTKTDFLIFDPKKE
The experiment in a line: AGA*IA assay: colorimetric fondaparinux cleavage assay for heparanase inhibition (WST-1). Format: biochemical. Particulars: 2.5 nM heparanase, 100 µM fondaparinux, pH 5.0, 3 h at 37°C; class symbols. As to the method:
All compounds were tested in a simple, accurate and robust microplate assay based on the cleavage of the synthetic heparin fragment, the pentasaccharide Fondaparinux (AGA*IA). This assay was originally developed by Hammond and coworkers [Hammond E, Li CP, Ferro V. Development of a colorimetric assay for heparanase activity suitable for kinetic analysis and inhibitor screening. Anal. Biochem. 396(1), 112-116 (2010)], where Fondaparinux corresponds to the methyl glycoside of the antithrombin III (ATIII)-activating pentasaccharide sequence of heparin. Fondaparinux is cleaved by heparanase to generate a reducing disaccharide, which can be quantitatively measured via a colorimetric or a fluorescence assay, the last by the fluorescent sensor polymer-H [Schiemann S, Lühn S, Alban S. Development of both colorimetric and fluorescence heparinase activity assays using fondaparinux as substrate. Anal. Biochem. 427(1), 82-89 (2012)].
The assay measures the appearance of the disaccharide product of heparanase-catalyzed fondaparinux cleavage colorimetrically using the tetrazolium salt WST-1. Assay was essentially performed as described with minor modifications. Briefly, NUNC ELISA 96-well plates were pre-treated with a solution of 4% BSA (bovin serum albumin) in phosphate-buffered saline containing 0.05% Tween 20 (PBST), for 2 h at 37°C, then washed three times with PBST, dried by tapping on paper towel and stored at -20°C. Before use, once again, the plates were washed with PBST.
Assay was carried out with 100 µl/well of assay solution containing 40 mM sodium acetate buffer (pH 5.0), 100 µM fondaparinux, 2.5 nM heparanase and serial dilutions of test compounds (tested in triplicate). Plates were sealed with adhesive tape and incubated, in the dark, for 3 h at 37°C, followed by development with 1.69 mM of the tetrazolium salt WST-1 solution in 0.1 M NaOH, for 1 h at 60°C. Then, the absorbance at 560 nm was measured through a microplate reader (Victor 3, Perkin Elmer).
Finally, the measurements were corrected by subtracting both the reagent background and the inner absorbance value of test compound.

Test [1] has as its system U87MG (human glioblastoma astrocytoma). The experiment in a line: Cell adhesion assay on matrigel coated wells, U87MG. Type of test: cell-based. The note with it: test compound at 2.5 µM, percent of adhesion with respect to the control (100%). As to the method: Cell surface, non-integrin molecules such as heparan sulfate proteoglycans (HSPGs) may be involved in the regulation of early adhesive stages of cell-ECM interactions. A cell adhesion assay has been employed to determine if the newly designed heparanase inhibitors were able to interfere with adhesion properties of cancer cells.
HT1080 (human fibrosarcoma) and U87MG (human glioblastoma astrocytoma) cells were treated for 18-20 h with test compounds in complete medium supplemented with 10% FCS. Then cells were collected, washed in complete medium, and added to matrigel coated wells in triplicate, at previously identified optimal seeding density, and incubated at 37 °C in complete medium for times ranging from 15 minutes to 4h, according to the cell line. After incubation, the wells were washed three times with serum-free medium and the remaining firmly attached cells were stained with crystal-violet 0.1%. Optical density was measured at 560 nm by Victor 3 (Perkin-Elmer) plate analyzer. Each experiment was repeated three times.
Table 3. […] In Invasion assay, data were expressed as the percent invasion (range) with respect to cell migration through uncoated insert membrane. In Adhesion assay, data were expressed as the percent of adhesion with respect to the control (100%). • Legend • ++: 50-90% • + : < 50% • - : Not Active

On to `O=C(O)Cc1ccc2oc(-c3ccc(NC(=O)Nc4ccc(-c5nc6cc(CC(=O)O)ccc6o5)cc4F)c(F)c3)nc2c1` [Compound 20, 2,2'-(((Carbonylbis(azanediyl))bis(3-fluoro-4,1-phenylene))bis(benzo[d]oxazole-2,5-diyl))diacetic acid], for which, in the test on FGF-1 (2.5 uM), the “Gene Expression (% mRNA vs. control) FGF-1” value was “∼ 85%”. In addition, the IC50 on heparanase fell in the range of 50 to 490 nM. Also, the “Adhesion Assay (%) U87MG” value in test [1] turned out to be 64.90%.
On to `O=C(O)CNC(=O)Cc1ccc2oc(-c3ccc(NC(=O)Nc4ccc(-c5nc6cc(CC(=O)NCC(=O)O)ccc6o5)cc4F)c(F)c3)nc2c1` [Compound 25, 2,2'-((2,2'-(((Carbonylbis(azanediyl))bis(3-fluoro-4,1-phenylene))bis(benzo[d]oxazole-2,5-diyl))bis(acetyl))bis(azanediyl))diacetic acid], for which, in the test on FGF-1 (10.0 uM), the “Gene Expression (% mRNA vs. control) FGF-1” value is “∼ 52%”. Further, on heparanase, the IC50 was 50 to 490 nM. Further, the “Adhesion Assay (%) U87MG” value in test [1] was 12.30%.

As a reminder, the IC50 is the concentration needed to halve the response being measured.
